Data published in PMC7466040, “Sevanol and Its Analogues: Chemical Synthesis, Biological Effects and Molecular Docking” (Pharmaceuticals, 2020).

Target: T1, rat ASIC1a (Rattus norvegicus, UniProt P55926)
T1 construct: expressed in transfected cells; host or cells: Xenopus laevis oocytes (cRNA injection)
T1 sequence (P55926 1-526): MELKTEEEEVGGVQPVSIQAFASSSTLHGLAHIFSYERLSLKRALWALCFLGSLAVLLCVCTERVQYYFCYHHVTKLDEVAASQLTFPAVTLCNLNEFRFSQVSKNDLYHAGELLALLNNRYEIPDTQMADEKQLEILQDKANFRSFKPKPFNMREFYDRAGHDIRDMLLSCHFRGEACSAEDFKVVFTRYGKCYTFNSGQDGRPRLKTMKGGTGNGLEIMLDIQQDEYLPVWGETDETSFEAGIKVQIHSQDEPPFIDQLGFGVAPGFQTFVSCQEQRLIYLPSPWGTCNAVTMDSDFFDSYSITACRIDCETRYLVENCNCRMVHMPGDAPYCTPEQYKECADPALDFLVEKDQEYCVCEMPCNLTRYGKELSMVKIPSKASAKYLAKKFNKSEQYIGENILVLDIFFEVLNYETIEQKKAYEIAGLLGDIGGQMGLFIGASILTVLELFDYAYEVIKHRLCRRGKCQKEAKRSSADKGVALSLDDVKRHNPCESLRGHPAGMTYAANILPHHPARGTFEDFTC
Experiment: Two-electrode voltage clamp on X. laevis oocytes expressing rat ASIC1a
Assay type: cell-based
Method: Testing the activity of synthetic sevanol (s706) (as a mixture of 75% of sevanol and 25% of isosevanol) and its analogues (s590, EA, and s788) was carried out by the standard two-electrode voltage clamp method on X. laevis oocytes expressing rat ASIC1a and ASIC3 channels. The activation of the channels was performed using a rapid change of the solution from conditioning pH 7.4 to a solution with pH 5.5. Sevanol and its two analogues, s590 and EA, inhibited ASIC1a and ASIC3 channels.
Oocytes were harvested from female frogs anaesthetized with tricaine methane sulfonate (MS222) (0.17% solution), and the surgery was performed in an ice bath to avoid heavy bleeding. Defolliculated stage IV and V cells were injected with 2.5 and 10 ng cRNA, synthesized from PCi plasmids containing the rat ASIC1a and rat ASIC3 isoforms, respectively, using the Nanoliter 2000 microinjection system (World Precision Instruments, USA). The injected oocytes were kept for 2–3 days at 17 to 19 °C, and then for up to 5 days at 15 °C in a ND96 medium containing (in mM) 96 NaCl, 2 KCl, 1.8 CaCl2, 1 MgCl2, and 5 HEPES titrated to pH 7.4 with NaOH supplemented with gentamycin (50 μg/mL). Two-electrode voltage clamp recordings were performed at a holding potential of −50 mV using a GeneClamp 500 amplifier (Axon Instruments), and the data were filtered at 20 Hz and digitized at 100 Hz by an AD converter L780 (LCard, Russia). Microelectrodes were filled with 3 M KCl. The conditioning bath solution was ND96; the pH was adjusted to 7.4. The activating test solution was constructed based on the ND-96 buffer, in which 5 mM HEPES was replaced with 10 mM MES and pH was adjusted to 5.5. A computer-controlled valve system was used to achieve a rapid solution exchange in the recording chamber. A four parameter logistic equation was used for the curve-fitting analysis: F(x) = ((a1 − a2)/(1 + (x/x0)n)) + a2, where x is the concentration of the compound; F(x) is the response value at a given concentration of the compound; a1 is the control response value (fixed at 100%); x0 is the IC50 value; n is the Hill coefficient (slope factor); and a2 is the response value at the maximal inhibition (% of control).
Figure 2 The inhibitory activity of sevanol (s706) and its analogues. Currents were elicited by a drop from pH 7.4 to 5.5; the holding potential was −50 mV; (A,C) are dose–response curves for s706, s590 and EA inhibitory effects on ASIC1a and ASIC3 channels, respectively; (B,D) are reciprocal IC50 values for s706, s590 and EA inhibitory effects on ASIC1a and ASIC3 channels, respectively. The data were fitted by the logistic equation. Each point is the mean ± SEM of 5–6 measurements. * p < 0.05, ** p < 0.005.

Compound: O=C(O)CC(C(=O)O)C(OC(=O)C1=Cc2cc(O)c(O)cc2C(c2ccc(O)c(O)c2)C1C(=O)OC(C(=O)O)C(CC(=O)O)C(=O)O)C(=O)O (centres unmarked) [sevanol]
- IC50 (X. laevis oocytes, pH drop 7.4 to 5.5, holding potential −50 mV, mean ± SEM of 5–6, read-out: IC50, inhibition of ASIC1a current): 228 ± 37.4 µM
- maximal current block, ASIC1a (pH 7.4 to 5.5, effect reversible): 100%
